Results: US20260158149A1, “GLYCOSYLATED PRODRUGS” (UNIVERSITEIT LEIDEN, priority 2021, published 2026)
“Also recorded” adds a separate entry of the source.

Columns and labels:
[1] = test system: neutrophils migrated to the wounded area; assay: Tail fin amputation assay: neutrophil migration to the wounded area; format: in vivo, Zebrafish (Danio rerio); conditions: for reduction in neutrophil migration in the presence of MZ31: GBA2 inhibitor MZ31; for inhibition of neutrophil migration in Gr deficient larvae: gr mutant line (gr-/-); for reduction in neutrophil migration in the presence of miglustat: non-specific GBA inhibitor miglustat; for neutrophil migration in Gba2-deficient larvae: gba2-/- mutant line
Procedure: Zebrafish (Danio rerio) were maintained and handled according to the guidelines from the Zebrafish Model Organism Database (https://zfin.org/) and in compliance with the directives of the local animal welfare committee of Leiden University. To maintain circadian rhythmicity, adult fish were exposed to a 14 h light and 10 h dark cycle. Fertilization was performed by natural spawning at the beginning of the light period. Fertilized eggs were collected and raised at 28° C. in egg water (60 μg/ml Instant Ocean sea salts and 0.0025% methylene blue). The following zebrafish lines were used in this study: AB/TL wild type, the transgenic lines Tg(mpx:GFP^i114/mpeg1:mCherry^umsF001) (Bernut et al., (2014). Mycobacterium abscessus cording prevents phagocytosis and promotes abscess formation. Proc Natl Acad Sci USA 111, E943-952; Renshaw et al., (2006). A transgenic zebrafish model of neutrophilic inflammation. Blood 108, 3976-3978), and Tg(9xGCRE-HSV.UI123:EGFP)^ia20 (Benato et al., (2014). A living biosensor model to dynamically trace glucocorticoid transcriptional activity during development and adult life in zebrafish. Mol Cell Endocrinol 392, 60-72), and the mutant lines gba2^−/− (Lelieveld et al., (2019). Role of beta-glucosidase 2 in aberrant glycosphingolipid metabolism: model of glucocerebrosidase deficiency in zebrafish. J Lipid Res 60, 1851-1867) and gr^s357 (Ziv et al., (2013). An affective disorder in zebrafish with mutation of the glucocorticoid receptor. Mol Psychiatry 18, 681-691).
(§1) For the tail fin amputation experiments, 3 days post fertilization (dpf) larvae from the Tg(mpx:GFP^i114/mpeg1:mCherry^umsF001) line were anesthetized in 0.02% buffered aminobenzoic acid ethyl ester (tricaine) in egg water and placed on a 2% agarose-coated petri dish. The tails were partially amputated with a 1 mm sapphire blade (World Precision Instruments) under a Leica M165C stereomicroscope (Leica Microsystems, Wetzlar, Germany). Chemical treatment (or 0.1% DMSO as vehicle treatment) was started at 2 h before the amputation (pretreatment) and was continued for 4 h after the tail fin amputation (20 larvae per group, unless indicated otherwise), at which time point the larvae were fixed in 4% paraformaldehyde (PFA) overnight at 4° C. and stored at 4° C. until further examination. In some experiments, a 24 h treatment with miglustat, ME656 or MZ31 was started at 2 dpf, and these treatments were continued during the pretreatment and treatment with the other chemicals. For imaging of larvae from the Tg(mpx:GFP^i114/mpeg1:mCherry^umsF001) line, a LeicaMZ16FA fluorescence stereomicroscope with LAS 3.7 software was used. Neutrophils were detected by GFP fluorescence and macrophages by mCherry fluorescence. The neutrophil numbers were determined by blinded manual counting in a pre-determined area. When larvae from gba2^−/− or gr^s357mutant lines were used, neutrophil labeling was performed with the TSA fluorescein detection kit (PerkinElmer) for specific staining of Myeloperoxidase (Mpx)-positive cells, following the manufacturer's instructions.

[2] = test system: il1b, il6, mmp9, mmp13, il8 mRNA; assay: qPCR of pro-inflammatory genes after tail wounding; format: in vivo, Zebrafish (Danio rerio)
Text: as §1
(§2) For experiments in zebrafish, gene expression was measured using 3 dpf embryos. Groups of 15 larvae were collected in TRIzol reagent (Invitrogen) and mRNA was isolated using the miRNeasy mini kit (Qiagen), according to the manufacturer's instructions. For experiments in HeLa cells, samples were collected from a single well from 6 well plates (80% confluent) in TRIzol reagent and mRNA was isolated using the RNeasy mini kit. Zebrafish and cells samples were treated with DNAse utilizing the DNA-Free™ kit (Ambion). The cDNA synthesis was performed using iScript cDNA synthesis kit (Bio-Rad) using 1 μg of RNA per sample. For qPCR, 10 μM of forward and 10 μM of reverse primer, 12.5 μL of iQ SYBR Green Supermix (Bio-Rad), and 2 μL of cDNA were added to the qPCR reaction mixture. […] The qPCR reactions were performed on a MyiQ-single-color real-time PCR detection system (Bio-Rad) with initial denaturation for 3 min at 95° C. and 40 cycles of 15 s at 95.5° C., 15 s at 60° C., and 30 s at 72° C. Cycle threshold values (Ct values, i.e. the cycle numbers at which a threshold value of the fluorescence intensity was reached) were determined for each sample. The gene expression level for each sample was normalized using the expression of ppial (peptidylprolyl isomerase Ab (cyclophilin A)) for zebrafish samples, and 18S rRNA for human cells. The fold change per sample (compared to the respective control group) was calculated using the ΔΔCt method.

Larval body length = format: in vivo, Zebrafish (Danio rerio); conditions: 5 dpf, treatment from 2 hpf
Procedure: (§3) When the regeneration of the tail fins after wounding or the larval body length was used as a readout, chemical treatments of the embryos were started at 2 hours post fertilization (hpf) and continued until 5 dpf. During this period, solutions were refreshed daily. At 5 dpf, larvae were imaged using a LeicaMZ16FA fluorescence stereomicroscope supported by LAS 3.7 software, and the length of the larvae was measured using ImageJ software (15 larvae per treatment group). For the regeneration experiments, tail fins were amputated at 2 dpf and larvae were imaged at 5 dpf (15 larvae per treatment group). The newly grown tissue can be distinguished from the old tissue, enabling precise measurement of the size of the newly grown tissue using ImageJ software.

regenerated tail fin = assay: Regeneration of the tail fin after wounding; format: in vivo, Zebrafish (Danio rerio); conditions: 5 dpf larvae, wounded at 2 dpf; for tissue regeneration with MZ31: GBA2 inhibitor MZ31
Procedure: as §3

Gr = assay: Transactivation activity of Gr in Tg(9xGCRE-HSV.UI23:EGFP) reporter line; format: in vivo, Zebrafish (Danio rerio); conditions: 24 h treatment, 3 dpf larvae
Procedure: The Tg(9xGCRE-HSV.UI23:EGFP)^ia20 zebrafish reporter line expresses enhanced green fluorescent protein (EGFP) under the control of a promoter containing an array of nine GREs. To study the effect of chemical treatments on the transactivation activity of the Gr, 15 zebrafish embryos per group (2 dpf) were treated with the indicated compounds for 24 hours. The transactivation activity of Gr induced by the treatments was assessed using a LeicaMZ16FA fluorescence stereomicroscope supported by LAS 3.7 software. The integrated intensity of the EGFP signal in the larvae was determined using ImageJ software.

[3] = test system: Gr target genes fkbp5, pck1 and nfkbiaa; assay: qPCR of Gr target genes fkbp5, pck1, nfkbiaa; format: in vivo, Zebrafish (Danio rerio)
Procedure: as §2

[4] = Whole-body glucose measurement in larvae; conditions: 5 dpf larvae treated from 2 hpf, non-wounded
Procedure: Zebrafish embryos at 2 hpf received a chemical treatment, as indicated, with daily refreshment of the solutions, until 5 dpf. At 5 dpf, the larvae were collected in an Eppendorf tube and 100 μL of ice-cold glucose buffer was added to each sample. The larvae were homogenized using a BulletBlender® for 3 min at 8,000 rpm. The homogenates were then centrifuged at 4° C. for 8 min at 11000 rpm and the supernatant was stored at −20° C. Whole-body glucose concentrations were determined using a Glucose Colorimetric Assay kit (Cayman Chemical, USA), according to the manufacturer's instructions. In each experiment, three biological replicates were used for each treatment group, and the colorimetric assay was performed using technical duplicates.

[5] = Whole-body cortisol measurement using ELISA; conditions: for whole body cortisol level: 5 dpf larvae treated from 2 hpf, non-wounded; for whole body cortisol level under wounding conditions / whole body cortisol level under wounding conditions with MZ31: 5 dpf larvae, wounded at 2 dpf; for whole body cortisol level under wounding conditions with MZ31: GBA2 inhibitor MZ31
Procedure: Zebrafish embryos at 2 hpf received a chemical treatment, as indicated, with daily refreshment of the solutions, until 96 hpf. Then, the treatments were stopped and embryos were incubated in egg water until 5 dpf to avoid cross-reactivity with the compounds of the cortisol antibody used in the ELISA. Then, the treatments were stopped and replaced with egg water. At 5 dpf, the larvae were collected in an Eppendorf tube and 100 μL of ice-cold phosphate-buffered saline (PBS) was added. The larvae were homogenized using a BulletBlender® for 3 min at 8,000 rpm. Ethyl acetate was added to the homogenate and the supernatant was gathered and vaporized. A volume of 150 μl of 0.2% Bovine serum albumin (Sigma Aldrich) dissolved in phosphate-buffered saline (PBS) was added to the samples and frozen. Whole-body cortisol of the zebrafish larvae was determined by ELISA (Demeditec Diagnostics GmbH, Kiel-Wellsee, Germany), following the manufacturer's instructions. In each experiment, three biological replicates were used for each treatment group, and the colorimetric assay was performed using technical duplicates.

IL-6 = assay: CAIA model: serum IL-6 by ELISA; format: in vivo, mouse
Procedure: All mice received 1.5 mg of a CAIA-cocktail (Chondrex) intravenously on day 1, followed by intraperitoneal (i.p.) injection of 50 μg LPS (Chondrex) on day 4. Mice were randomly divided into six groups. […] Scores were assigned blinded. […] The blood collection on day 14 was performed after 6 h fasting. On day 15, mice were sacrificed using carbon dioxide, and tissue samples were collected that were immediately frozen in liquid nitrogen. Applied humane endpoints were a total body weight loss of >20% in comparison to the day of LPS treatment or reaching an arthritis score of 45.
IL-6 concentrations were determined by ELISA in the serum collected at days 10 and 15, using the IL-6 mouse ELISA kit (Invitrogen), following the manufacturer's protocol. The insulin concentration was determined in serum collected at day 14, using the Ultra-sensitive mouse insulin ELISA kit (Crystal Chem), following the manufacturer's protocol. Corticosterone concentrations were determined in serum collected at day 15, using the Corticosterone HS (high sensitivity) enzyme immunoassay kit (Immunodiagnostic Systems), following the manufacturer's protocol. Expression levels of various GR target genes were determined by qPCR in the tissue samples (homogenized in TRIzol Reagent (ThermoFisher)) collected at day 15.

[6] = test system: collagen antibody-induced arthritis (CAIA)
[7] = Pdn 12.5 or 25 mg/kg i.p. daily from day 7

Row | tissue regeneration with MZ31 (regenerated tail fin) | whole body cortisol level under wounding conditions [5] | whole body cortisol level under wounding conditions with MZ31 [5] | Structure (SMILES) | reduction in neutrophil migration in the presence of MZ31 [1] | inhibition of neutrophil migration in Gr deficient larvae [1] | reduction in neutrophil migration in the presence of miglustat [1] | wounding-induced increase in expression of il1b, il6 and mmp9 [2] | larval length (Larval body length) | tissue regeneration (length of regenerated tail fin) (regenerated tail fin) | transactivation activity of Gr (GFP signal in GRE:GFP reporter fish line) (Gr) | whole body glucose level [4] | whole body cortisol level [5] | neutrophil migration in Gba2-deficient larvae [1] | also measured
1 | – | – | – | CC(C)=CCCC(C)(O)[C@H]1CC[C@]2(C)[C@@H]1[C@H](O)C[C@@H]1[C@@]3(C)CC[C@H](O)C(C)(C)[C@@H]3CC[C@]12C (stereo in doubt) [PPD, Protopanaxadiol] | did not affect the action of PPD | the inhibition of neutrophil migration was abolished | did not affect the action of PPD | strongly suppressed | did decrease | did decrease | did not cause an increase in the fluorescence intensity | did not affect the glucose level | did decrease the cortisol concentration | – | expression of Gr target genes fkbp5, pck1 and nfkbiaa [3]: did not increase the expression
2 | – | – | – | C[C@@H]1C[C@H]2[C@@H]3CCC4=CC(=O)C=C[C@]4(C)[C@@]3(F)[C@@H](O)C[C@]2(C)[C@@]1(O)C(=O)CO [Dex, dexamethasone] | – | – | – | – | decreased | – | – | increased the glucose concentration | decreased the cortisol level; also recorded: significantly larger decrease | – | –
3 | GBA2-dependent | minor effect | GBA2-dependent | CC(C)=CCC[C@](C)(O[C@@H]1O[C@H](CO)[C@@H](O)[C@H](O)[C@H]1O)[C@H]1CC[C@]2(C)[C@@H]1[C@H](O)C[C@@H]1[C@@]3(C)CC[C@H](O[C@@H]4O[C@H](CO)[C@@H](O)[C@H](O)[C@H]4O)C(C)(C)[C@@H]3CC[C@]12C [F2] | abolished | the inhibition of neutrophil migration was abolished | abolished | strongly suppressed | – | neither did they affect; also recorded: minor effect | did not cause an increase in the fluorescence intensity | did not show any effect on glucose | neither did they affect the cortisol concentration | did not affect the neutrophil migration | –
4 | – | – | – | C[C@]12C=CC(=O)C=C1CC[C@@H]1[C@@H]2[C@@H](O)C[C@@]2(C)[C@H]1CC[C@]2(O)C(=O)CO [Pdn, prednisolone] | – | – | – | – | – | – | – | – | significantly larger decrease | – | migration of neutrophils towards the wounded area ([1]; wild type larvae, 4 h after tail wounding): inhibited the neutrophil migration; expression of the pro-inflammatory genes il1b, il6 and il8 [2]: these effects were similar to those observed upon Pdn and GPdn treatment; serum IL-6 level compared to the vehicle group (IL-6; day 10, all treatment groups): significant reduction of the IL-6 level; serum IL-6 level (IL-6; day 15, all groups except 12.5 mg/kg GbPdn): undetectable; arthritis score at maximal reduction [6, 7]: approximately 0; day of maximal reduction of arthritis score [6, 7]: 11 days; arthritis scores after treatment initiation ([6]; all dose groups, daily i.p. from day 7): decreased rapidly after treatment initiation
5 | GBA2-dependent | minor effect | GBA2-dependent | CC(C)=CCC[C@](C)(O[C@@H]1O[C@H](CO[C@@H]2O[C@H](CO)[C@@H](O)[C@H](O)[C@H]2O)[C@@H](O)[C@H](O)[C@H]1O)[C@H]1CC[C@]2(C)[C@@H]1[C@H](O)C[C@@H]1[C@@]3(C)CC[C@H](O[C@@H]4O[C@H](CO)[C@@H](O)[C@H](O)[C@H]4O[C@@H]4O[C@H](CO)[C@@H](O)[C@H](O)[C@H]4O)C(C)(C)[C@@H]3CC[C@]12C [Rb1] | abolished | the inhibition of neutrophil migration was abolished | abolished | strongly suppressed | – | neither did they affect; also recorded: minor effect | did not cause an increase in the fluorescence intensity | did not show any effect on glucose | neither did they affect the cortisol concentration | did not affect the neutrophil migration | –
